The values that follow come from patent US12581252B2, “Substituted pyrrolo[3,4-b]pyridines as PI3K-α inhibitors” (Relay Therapeutics, Inc., priority 2020, dated 2026).

pIC50: −log10 of the molar value.

System in one experiment: not listed separately
The experiment in a line: cells. Conditions: Homo sapiens, MCF-10A, read-out: MCF10A IC50.
For `O=C(Nc1cc(-c2cnc3ccnn3c2)cc2c1C(c1cc(F)ccc1Cl)NC2=O)c1cc(F)cc(C(F)(F)F)c1` (stereo not drawn) [Compound I-1047], the pIC50 (as a rule, the negative decadic logarithm of the IC50, by convention in mol/L) was > 6.00.
Take `O=C(Nc1cc(-c2ccc3c(c2)C(=O)NCCO3)cc2c1C(c1cc(F)ccc1Cl)NC2=O)c1cc(F)cc(C(F)(F)F)c1` (stereo not drawn) [Compound I-1048]: the pIC50 was > 6.00.
`O=C(Nc1cc(-c2ccnc3[nH]ccc23)cc2c1C(c1cc(F)ccc1Cl)NC2=O)c1cc(F)cc(C(F)(F)F)c1` (stereo not drawn) [Compound I-1049]: the pIC50 was > 6.00.
For the compound `O=C(Nc1cc(-c2ccc3ncnn3c2)cc2c1[C@@H](c1cc(Cl)ccc1Cl)NC2=O)c1cc(F)cc(C(F)(F)F)c1` [Compound I-1054], the pIC50 was > 6.00.
The same measure, in the same setting: the figure for `O=C(Nc1cc(-c2ccc3ncnn3c2)cc2c1C(c1cc(F)ccc1C(F)F)NC2=O)c1cc(F)cc(C(F)(F)F)c1` (stereo not drawn) [Compound I-1057] is > 6.00; for `O=C(Nc1cc(-c2ccc3ncnn3c2)cc2c1[C@@H](c1cc(F)c(F)cc1Cl)NC2=O)c1cc(F)cc(C(F)(F)F)c1` [Compound I-1061] it is > 6.00; for `O=C(Nc1cc(OCCO)cc2c1C(c1cc(F)ccc1Cl)NC2=O)c1cc(F)cc(C(F)(F)F)c1` (stereo not drawn) [Compound I-1064] it is > 6.00.
As to `O=C(Nc1cc(-c2cncs2)cc2c1C(c1cc(F)ccc1Cl)NC2=O)c1cc(F)cc(C(F)(F)F)c1` (stereo not drawn) [Compound I-1065], the pIC50 is > 6.00.
Consider `COc1nc(-c2cc(NC(=O)c3cc(F)cc(C(F)(F)F)c3)c3c(c2)C(=O)NC3c2cc(F)ccc2Cl)cs1` (stereo not drawn) [Compound I-1066], for which the pIC50 is 5.30 to 6.00.
`NC(=O)c1nc(-c2cc(NC(=O)c3cc(F)cc(C(F)(F)F)c3)c3c(c2)C(=O)NC3c2cc(F)ccc2Cl)cs1` (stereo not drawn) [Compound I-1067]: the pIC50 is > 6.00.
For the compound `O=C(Nc1cc(-c2cnsc2)cc2c1C(c1cc(F)ccc1Cl)NC2=O)c1cc(F)cc(C(F)(F)F)c1` (stereo not drawn) [Compound I-1068], the pIC50 is > 6.00.
Turning to `O=C(Nc1cc(-n2cccn2)cc2c1[C@H](c1cc(F)ccc1Cl)NC2=O)c1cc(F)cc(C(F)(F)F)c1` [Compound I-1069], the pIC50 is > 6.00.
Take `Cn1ccc(Nc2cc(NC(=O)c3cc(F)cc(C(F)(F)F)c3)c3c(c2)C(=O)N[C@H]3c2cc(F)ccc2Cl)n1` [Compound I-1071]: the pIC50 was > 6.00.
Same read-out and setting: the figure for `O=C1NC(c2cc(F)ccc2Cl)c2c(NC(=O)C34CC5CC(C3)CC(C(F)(F)F)(C5)C4)cccc21` (stereo not drawn) [Compound I-1073] is > 6.00; for `Cn1ccnc1Nc1cc(NC(=O)c2cc(F)cc(C(F)(F)F)c2)c2c(c1)C(=O)NC2c1cc(F)ccc1Cl` (stereo not drawn) [Compound I-1075] it is > 6.00.
Same read-out and setting: for `Cn1nc(-c2cc(NC(=O)c3cc(F)cc(C(F)(F)F)c3)c3c(c2)C(=O)NC3c2cc(F)ccc2Cl)ccc1=O` (stereo not drawn) [Compound I-1076] the value was > 6.00; for `O=C(Nc1cc(-c2cn[nH]c2)cc2c1[C@H](c1cc(F)ccc1Cl)NC2=O)c1cc(F)cc(C(F)(F)F)c1` [Compound I-1078], > 6.00.
In the case of `CC(C)(O)Cc1cc(NC(=O)c2cc(F)cc(Cl)c2)c2c(c1)C(=O)N[C@H]2c1cc(F)ccc1Cl` [Compound I-1080], the pIC50 is > 6.00.
With `O=C(Nc1cc(CS(=O)(=O)C2CC2)cc2c1C(c1cc(F)ccc1Cl)NC2=O)c1cc(F)cc(C(F)(F)F)c1` (stereo not drawn) [Compound I-1081], the pIC50 was > 6.00.
`Cn1nccc1CNc1cc(NC(=O)c2cc(F)cc(C(F)(F)F)c2)c2c(c1)C(=O)NC2c1cc(F)ccc1Cl` (stereo not drawn) [Compound I-1082]: the pIC50 was > 6.00.
As for `Cn1cnnc1Nc1cc(NC(=O)c2cc(F)cc(C(F)(F)F)c2)c2c(c1)C(=O)NC2c1cc(F)ccc1Cl` (stereo not drawn) [Compound I-1083], the pIC50 is 5.30 to 6.00.
Consider `O=C(Nc1cc(-c2cscn2)cc2c1[C@H](c1cc(F)ccc1Cl)NC2=O)c1cc(F)cc(C(F)(F)F)c1` [Compound I-1084], for which the pIC50 was > 6.00.
For the compound `O=C(Nc1cc(-n2cncn2)cc2c1C(c1cc(F)ccc1Cl)NC2=O)c1cc(F)cc(C(F)(F)F)c1` (stereo not drawn) [Compound I-1086], the pIC50 was > 6.00.
Take `COc1ncccc1-c1cc(NC(=O)c2cc(F)cc(C(F)(F)F)c2)c2c(c1)C(=O)NC2c1cc(F)ccc1Cl` (stereo not drawn) [Compound I-1091]: the pIC50 is > 6.00.

In a further experiment the target is H1047R PIK3CA enzyme (Homo sapiens, UniProt P42336, H1047R). The experiment in a line: ADP-Glo Biochemical PIK3CA Kinase Assay.
H1047R PIK3CA enzyme, sequence (P42336 whole entry H1047R): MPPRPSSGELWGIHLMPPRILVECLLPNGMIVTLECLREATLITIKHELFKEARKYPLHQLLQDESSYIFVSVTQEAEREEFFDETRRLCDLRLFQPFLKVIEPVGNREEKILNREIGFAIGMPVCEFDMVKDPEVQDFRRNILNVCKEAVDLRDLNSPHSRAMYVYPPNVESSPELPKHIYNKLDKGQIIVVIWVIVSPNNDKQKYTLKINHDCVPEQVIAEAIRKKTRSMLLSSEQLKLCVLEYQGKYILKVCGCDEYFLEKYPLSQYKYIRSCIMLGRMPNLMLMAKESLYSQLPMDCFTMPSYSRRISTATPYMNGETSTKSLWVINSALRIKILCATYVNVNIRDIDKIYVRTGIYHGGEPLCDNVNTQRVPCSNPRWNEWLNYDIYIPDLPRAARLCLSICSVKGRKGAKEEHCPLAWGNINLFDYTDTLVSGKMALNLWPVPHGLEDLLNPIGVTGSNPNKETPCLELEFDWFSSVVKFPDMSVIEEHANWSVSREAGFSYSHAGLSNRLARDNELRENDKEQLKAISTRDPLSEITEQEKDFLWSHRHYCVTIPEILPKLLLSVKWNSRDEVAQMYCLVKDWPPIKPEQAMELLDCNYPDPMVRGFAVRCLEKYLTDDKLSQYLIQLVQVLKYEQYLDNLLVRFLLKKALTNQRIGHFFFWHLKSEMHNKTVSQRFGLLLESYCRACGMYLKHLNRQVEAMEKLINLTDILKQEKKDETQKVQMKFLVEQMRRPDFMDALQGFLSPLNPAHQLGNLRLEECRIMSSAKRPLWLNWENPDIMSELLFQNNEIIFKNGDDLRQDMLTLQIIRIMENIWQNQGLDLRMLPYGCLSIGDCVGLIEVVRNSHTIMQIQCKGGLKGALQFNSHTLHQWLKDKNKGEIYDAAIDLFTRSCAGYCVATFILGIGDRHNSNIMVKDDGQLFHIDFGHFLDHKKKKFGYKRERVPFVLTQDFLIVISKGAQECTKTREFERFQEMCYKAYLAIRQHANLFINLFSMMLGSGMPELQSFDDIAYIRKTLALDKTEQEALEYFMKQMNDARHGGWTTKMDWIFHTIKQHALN
H1047R PIK3CA enzyme, sequence (P27986 whole entry partner): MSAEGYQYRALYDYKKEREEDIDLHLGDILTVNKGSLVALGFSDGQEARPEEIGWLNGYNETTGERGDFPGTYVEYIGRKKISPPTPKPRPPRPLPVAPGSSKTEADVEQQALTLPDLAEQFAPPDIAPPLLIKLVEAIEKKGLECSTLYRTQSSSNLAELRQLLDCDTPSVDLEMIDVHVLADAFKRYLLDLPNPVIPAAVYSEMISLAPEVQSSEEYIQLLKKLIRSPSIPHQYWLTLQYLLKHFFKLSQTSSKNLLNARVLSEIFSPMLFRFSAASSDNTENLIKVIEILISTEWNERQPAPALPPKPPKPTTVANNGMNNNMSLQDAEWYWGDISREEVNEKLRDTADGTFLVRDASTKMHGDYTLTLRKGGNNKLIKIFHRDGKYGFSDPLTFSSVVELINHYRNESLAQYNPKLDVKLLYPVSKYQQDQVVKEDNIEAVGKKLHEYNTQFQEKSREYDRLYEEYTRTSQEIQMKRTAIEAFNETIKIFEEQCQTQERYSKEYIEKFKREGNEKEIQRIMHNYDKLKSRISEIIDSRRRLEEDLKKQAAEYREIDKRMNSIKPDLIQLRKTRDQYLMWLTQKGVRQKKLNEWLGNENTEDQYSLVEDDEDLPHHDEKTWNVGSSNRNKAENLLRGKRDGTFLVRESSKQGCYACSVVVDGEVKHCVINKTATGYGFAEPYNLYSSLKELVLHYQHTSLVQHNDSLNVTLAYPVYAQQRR
Conditions: not given
In general terms: ADP-Glo turns the ADP formed in a reaction into a luminescent signal.
As for `O=C(Nc1cc(-c2cnc3ccnn3c2)cc2c1C(c1cc(F)ccc1Cl)NC2=O)c1cc(F)cc(C(F)(F)F)c1` (stereo not drawn) [Compound I-1047], the pIC50 was ≥ 7.00.
On to `O=C(Nc1cc(-c2ccc3c(c2)C(=O)NCCO3)cc2c1C(c1cc(F)ccc1Cl)NC2=O)c1cc(F)cc(C(F)(F)F)c1` (stereo not drawn) [Compound I-1048], for which the pIC50 is ≥ 7.00.
As for `O=C(Nc1cc(-c2ccnc3[nH]ccc23)cc2c1C(c1cc(F)ccc1Cl)NC2=O)c1cc(F)cc(C(F)(F)F)c1` (stereo not drawn) [Compound I-1049], the pIC50 is ≥ 7.00.
`O=C(Nc1cc(-c2ccc3ncnn3c2)cc2c1[C@@H](c1cc(Cl)ccc1Cl)NC2=O)c1cc(F)cc(C(F)(F)F)c1` [Compound I-1054]: the pIC50 was ≥ 7.00.
The same measure, in the same setting: the figure for `O=C(Nc1cc(-c2ccc3ncnn3c2)cc2c1C(c1cc(F)ccc1C(F)F)NC2=O)c1cc(F)cc(C(F)(F)F)c1` (stereo not drawn) [Compound I-1057] is ≥ 7.00.
Take `O=C(Nc1cc(-c2ccc3ncnn3c2)cc2c1[C@@H](c1cc(F)c(F)cc1Cl)NC2=O)c1cc(F)cc(C(F)(F)F)c1` [Compound I-1061]: the pIC50 is ≥ 7.00.
Still for that read-out and setting: the figure for `O=C(Nc1cc(OCCO)cc2c1C(c1cc(F)ccc1Cl)NC2=O)c1cc(F)cc(C(F)(F)F)c1` (stereo not drawn) [Compound I-1064] is ≥ 7.00; for `O=C(Nc1cc(-c2cncs2)cc2c1C(c1cc(F)ccc1Cl)NC2=O)c1cc(F)cc(C(F)(F)F)c1` (stereo not drawn) [Compound I-1065] it is ≥ 7.00.
Take `COc1nc(-c2cc(NC(=O)c3cc(F)cc(C(F)(F)F)c3)c3c(c2)C(=O)NC3c2cc(F)ccc2Cl)cs1` (stereo not drawn) [Compound I-1066]: the pIC50 is ≥ 7.00.
On to `NC(=O)c1nc(-c2cc(NC(=O)c3cc(F)cc(C(F)(F)F)c3)c3c(c2)C(=O)NC3c2cc(F)ccc2Cl)cs1` (stereo not drawn) [Compound I-1067], for which the pIC50 is ≥ 7.00.
Still for that read-out and setting: for `O=C(Nc1cc(-c2cnsc2)cc2c1C(c1cc(F)ccc1Cl)NC2=O)c1cc(F)cc(C(F)(F)F)c1` (stereo not drawn) [Compound I-1068] the value was ≥ 7.00.
Consider `O=C(Nc1cc(-n2cccn2)cc2c1[C@H](c1cc(F)ccc1Cl)NC2=O)c1cc(F)cc(C(F)(F)F)c1` [Compound I-1069], for which the pIC50 is ≥ 7.00.
`Cn1ccc(Nc2cc(NC(=O)c3cc(F)cc(C(F)(F)F)c3)c3c(c2)C(=O)N[C@H]3c2cc(F)ccc2Cl)n1` [Compound I-1071]: the pIC50 is ≥ 7.00.
With `O=C1NC(c2cc(F)ccc2Cl)c2c(NC(=O)C34CC5CC(C3)CC(C(F)(F)F)(C5)C4)cccc21` (stereo not drawn) [Compound I-1073], the pIC50 was ≥ 7.00.
Take `Cn1ccnc1Nc1cc(NC(=O)c2cc(F)cc(C(F)(F)F)c2)c2c(c1)C(=O)NC2c1cc(F)ccc1Cl` (stereo not drawn) [Compound I-1075]: the pIC50 is ≥ 7.00.
For `Cn1nc(-c2cc(NC(=O)c3cc(F)cc(C(F)(F)F)c3)c3c(c2)C(=O)NC3c2cc(F)ccc2Cl)ccc1=O` (stereo not drawn) [Compound I-1076], the pIC50 was ≥ 7.00.
Turning to `O=C(Nc1cc(-c2cn[nH]c2)cc2c1[C@H](c1cc(F)ccc1Cl)NC2=O)c1cc(F)cc(C(F)(F)F)c1` [Compound I-1078], the pIC50 is ≥ 7.00.
Regarding `CC(C)(O)Cc1cc(NC(=O)c2cc(F)cc(Cl)c2)c2c(c1)C(=O)N[C@H]2c1cc(F)ccc1Cl` [Compound I-1080], the negative logarithm of the IC50 (pIC50) was ≥ 7.00.
As for `O=C(Nc1cc(CS(=O)(=O)C2CC2)cc2c1C(c1cc(F)ccc1Cl)NC2=O)c1cc(F)cc(C(F)(F)F)c1` (stereo not drawn) [Compound I-1081], the pIC50 is ≥ 7.00.
On the same count and under the same terms, for `Cn1nccc1CNc1cc(NC(=O)c2cc(F)cc(C(F)(F)F)c2)c2c(c1)C(=O)NC2c1cc(F)ccc1Cl` (stereo not drawn) [Compound I-1082] the value was ≥ 7.00.
As for `Cn1cnnc1Nc1cc(NC(=O)c2cc(F)cc(C(F)(F)F)c2)c2c(c1)C(=O)NC2c1cc(F)ccc1Cl` (stereo not drawn) [Compound I-1083], the pIC50 was ≥ 7.00.
For the compound `O=C(Nc1cc(-c2cscn2)cc2c1[C@H](c1cc(F)ccc1Cl)NC2=O)c1cc(F)cc(C(F)(F)F)c1` [Compound I-1084], the pIC50 was ≥ 7.00.
Turning to `O=C(Nc1cc(-n2cncn2)cc2c1C(c1cc(F)ccc1Cl)NC2=O)c1cc(F)cc(C(F)(F)F)c1` (stereo not drawn) [Compound I-1086], the pIC50 is ≥ 7.00.
For `COc1ncccc1-c1cc(NC(=O)c2cc(F)cc(C(F)(F)F)c2)c2c(c1)C(=O)NC2c1cc(F)ccc1Cl` (stereo not drawn) [Compound I-1091], the pIC50 was ≥ 7.00.
